Organism: Rattus norvegicus
Assay: Open TG-GATES - Regimen: Daily Repeat
Assay type: toxicity, organism-based, Sprague-Dawley
Set-up: regimen Daily Repeat, gender Male, age 6 weeks
Details: in vivo, sc, route subcutaneous injection; for APTT / Bas / Eos / Fbg / Hb / Ht / Lym / MCH / MCHC / MCV / Mono / Neu / PT / Plat / RBC / Ret / WBC: tissue Blood; for KIDNEY_L / KIDNEY_R / KIDNEY_TOTAL: tissue Kidney; for LIVER: tissue Liver; for A/G / ALP / ALT / AST / BUN / CRE / Ca / Cl / DBIL / GLC / IP / K / LDH / Na / PL / RALB / TBIL / TC / TG / TP / gamma-GTP: tissue Plasma
[1] = 0 mg/kg, 72 h, dose 0 ug/Kg, dose level Control, time 3 day
[2] = 0 mg/kg, […], dose 0 ug/Kg, dose level Control, time 7 day
[3] = 0 mg/kg, […], dose 0 ug/Kg, dose level Control, time 14 day
[4] = 0 mg/kg, […], dose 0 ug/Kg, dose level Control, time 28 day
[5] = 0.002 mg/kg, 72 h, dose 2 ug/Kg, dose level Low, time 3 day
[6] = 0.002 mg/kg, […], dose 2 ug/Kg, dose level Low, time 7 day
[7] = 0.002 mg/kg, […], dose 2 ug/Kg, dose level Low, time 14 day
[8] = 0.002 mg/kg, […], dose 2 ug/Kg, dose level Low, time 28 day

## CC(=O)O.N=C(N)NCCC[C@@H](NC(=O)[C@@H]1CCCN1C(=O)[C@@H]1CSSCCC(=O)N[C@@H](Cc2ccc(O)cc2)C(=O)N[C@@H](Cc2ccccc2)C(=O)N[C@@H](CCC(N)=O)C(=O)N[C@@H](CC(N)=O)C(=O)N1)C(=O)NCC(N)=O [DESMOPRESSIN ACETATE]
[1]
  TERMINAL_BW: 251.2 g
  APTT: 16.5 s
  Bas: 0%
  Eos: 1%
  Fbg: 269.4 mg/dL
  Hb: 13.2 g/dL
  Ht: 40.3%
  Lym: 66.8%
  MCH: 21.5 pg
  MCHC: 32.7%
  MCV: 65.7 fL
  Mono: 9.6%
  Neu: 22.4%
  PT: 11.9 s
  Plat: 133.8 x10_4/uL
  RBC: 613.4 x10_4/ul
  Ret: 6.9%
  WBC: 105.2 x10_2/uL
  KIDNEY_L: 1 g
  KIDNEY_R: 1.1 g
  KIDNEY_TOTAL: 2.1 g
  LIVER: 11.8 g
  A/G: 2
  ALP: 1258.4 IU/L
  ALT: 32.6 IU/L
  AST: 68.8 IU/L
  BUN: 15.6 mg/dL
  CRE: 0.4 mg/dL
  Ca: 11.2 mg/dL
  Cl: 104.6 meq/L
  DBIL: 0.01 mg/dL
  GLC: 185.6 mg/dL
  IP: 7.3 mg/dL
  K: 5.4 meq/L
  LDH: 203 IU/L
  Na: 136 meq/L
  PL: 152.2 mg/dL
  RALB: 3.7 g/dL
  TBIL: 0.034 mg/dL
  TC: 79.8 mg/dL
  TG: 119.6 mg/dL
  TP: 5.6 g/dL
  gamma-GTP: 1 IU/L
[2]
  TERMINAL_BW: 275.2 g
  APTT: 16.5 s
  Bas: 0%
  Eos: 1%
  Fbg: 262.8 mg/dL
  Hb: 13.6 g/dL
  Ht: 41.6%
  Lym: 68.2%
  MCH: 21 pg
  MCHC: 32.8%
  MCV: 64.2 fL
  Mono: 7.4%
  Neu: 23.4%
  PT: 12 s
  Plat: 124.2 x10_4/uL
  RBC: 648.6 x10_4/ul
  Ret: 6.6%
  WBC: 103.6 x10_2/uL
  KIDNEY_L: 1.1 g
  KIDNEY_R: 1.1 g
  KIDNEY_TOTAL: 2.2 g
  LIVER: 12.4 g
  A/G: 1.9
  ALP: 1187.4 IU/L
  ALT: 30.2 IU/L
  AST: 68.8 IU/L
  BUN: 16.2 mg/dL
  CRE: 0.4 mg/dL
  Ca: 13.7 mg/dL
  Cl: 99.2 meq/L
  DBIL: 0.014 mg/dL
  GLC: 197.2 mg/dL
  IP: 7.4 mg/dL
  K: 5.1 meq/L
  LDH: 157.8 IU/L
  Na: 130.2 meq/L
  PL: 165 mg/dL
  RALB: 3.6 g/dL
  TBIL: 0.048 mg/dL
  TC: 86.8 mg/dL
  TG: 171 mg/dL
  TP: 5.5 g/dL
  gamma-GTP: 1 IU/L
[3]
  TERMINAL_BW: 338.4 g
  APTT: 15.5 s
  Bas: 0%
  Eos: 1%
  Fbg: 263.4 mg/dL
  Hb: 14.2 g/dL
  Ht: 43.5%
  Lym: 74.8%
  MCH: 20.7 pg
  MCHC: 32.6%
  MCV: 63.2 fL
  Mono: 7.8%
  Neu: 16.8%
  PT: 11.7 s
  Plat: 130.6 x10_4/uL
  RBC: 687 x10_4/ul
  Ret: 6%
  WBC: 122.6 x10_2/uL
  KIDNEY_L: 1.3 g
  KIDNEY_R: 1.3 g
  KIDNEY_TOTAL: 2.6 g
  LIVER: 14.3 g
  A/G: 1.7
  ALP: 1208.4 IU/L
  ALT: 31 IU/L
  AST: 67.8 IU/L
  BUN: 16.2 mg/dL
  CRE: 0.4 mg/dL
  Ca: 11.1 mg/dL
  Cl: 106.2 meq/L
  DBIL: 0.01 mg/dL
  GLC: 194.2 mg/dL
  IP: 6.9 mg/dL
  K: 5.2 meq/L
  LDH: 149 IU/L
  Na: 138.6 meq/L
  PL: 166 mg/dL
  RALB: 3.8 g/dL
  TBIL: 0.026 mg/dL
  TC: 91.4 mg/dL
  TG: 136.8 mg/dL
  TP: 6 g/dL
  gamma-GTP: 0.8 IU/L
[4]
  TERMINAL_BW: 413.7 g
  APTT: 17.8 s
  Bas: 0%
  Eos: 1.6%
  Fbg: 249.4 mg/dL
  Hb: 15.2 g/dL
  Ht: 46.3%
  Lym: 77.4%
  MCH: 19 pg
  MCHC: 32.8%
  MCV: 58.1 fL
  Mono: 6.6%
  Neu: 14.8%
  PT: 12.3 s
  Plat: 113 x10_4/uL
  RBC: 797.2 x10_4/ul
  Ret: 3.1%
  WBC: 130.4 x10_2/uL
  KIDNEY_L: 1.5 g
  KIDNEY_R: 1.5 g
  KIDNEY_TOTAL: 2.9 g
  LIVER: 15.3 g
  A/G: 1.5
  ALP: 865.8 IU/L
  ALT: 27.8 IU/L
  AST: 67.6 IU/L
  BUN: 14.6 mg/dL
  CRE: 0.4 mg/dL
  Ca: 8.9 mg/dL
  Cl: 106 meq/L
  DBIL: 0.01 mg/dL
  GLC: 184.8 mg/dL
  IP: 6.2 mg/dL
  K: 4.9 meq/L
  LDH: 154.2 IU/L
  Na: 139.2 meq/L
  PL: 126.4 mg/dL
  RALB: 3.6 g/dL
  TBIL: 0.038 mg/dL
  TC: 63.6 mg/dL
  TG: 120.6 mg/dL
  TP: 6 g/dL
  gamma-GTP: 0.6 IU/L
[5]
  TERMINAL_BW: 236.2 g
  APTT: 16.3 s
  Bas: 0%
  Eos: 1.2%
  Fbg: 261.2 mg/dL
  Hb: 13.3 g/dL
  Ht: 41%
  Lym: 72%
  MCH: 21.1 pg
  MCHC: 32.4%
  MCV: 65.2 fL
  Mono: 8.6%
  Neu: 18.2%
  PT: 12.2 s
  Plat: 133.6 x10_4/uL
  RBC: 630 x10_4/ul
  Ret: 8.4%
  WBC: 92.6 x10_2/uL
  KIDNEY_L: 1 g
  KIDNEY_R: 1 g
  KIDNEY_TOTAL: 2.1 g
  LIVER: 10.6 g
  A/G: 2
  ALP: 1631.2 IU/L
  ALT: 37 IU/L
  AST: 69.2 IU/L
  BUN: 15 mg/dL
  CRE: 0.4 mg/dL
  Ca: 11.2 mg/dL
  Cl: 104.8 meq/L
  DBIL: 0.01 mg/dL
  GLC: 199 mg/dL
  IP: 7.1 mg/dL
  K: 5.1 meq/L
  LDH: 180.4 IU/L
  Na: 136.8 meq/L
  PL: 146.4 mg/dL
  RALB: 3.7 g/dL
  TBIL: 0.034 mg/dL
  TC: 79.2 mg/dL
  TG: 95.2 mg/dL
  TP: 5.6 g/dL
  gamma-GTP: 1 IU/L
[6]
  TERMINAL_BW: 262 g
  APTT: 16.7 s
  Bas: 0%
  Eos: 1%
  Fbg: 265.2 mg/dL
  Hb: 13.9 g/dL
  Ht: 42.7%
  Lym: 70%
  MCH: 21.2 pg
  MCHC: 32.5%
  MCV: 65.2 fL
  Mono: 9.4%
  Neu: 19.8%
  PT: 12.1 s
  Plat: 106 x10_4/uL
  RBC: 655.8 x10_4/ul
  Ret: 6.9%
  WBC: 101 x10_2/uL
  KIDNEY_L: 1.2 g
  KIDNEY_R: 1.2 g
  KIDNEY_TOTAL: 2.4 g
  LIVER: 11.7 g
  A/G: 1.9
  ALP: 1102.8 IU/L
  ALT: 32.8 IU/L
  AST: 69.6 IU/L
  BUN: 17.8 mg/dL
  CRE: 0.4 mg/dL
  Ca: 13.6 mg/dL
  Cl: 99.4 meq/L
  DBIL: 0.012 mg/dL
  GLC: 198.6 mg/dL
  IP: 8.2 mg/dL
  K: 4.8 meq/L
  LDH: 155.6 IU/L
  Na: 130.6 meq/L
  PL: 132.2 mg/dL
  RALB: 3.7 g/dL
  TBIL: 0.044 mg/dL
  TC: 68.6 mg/dL
  TG: 99.4 mg/dL
  TP: 5.7 g/dL
  gamma-GTP: 1 IU/L
[7]
  TERMINAL_BW: 330.1 g
  APTT: 16.6 s
  Bas: 0%
  Eos: 1%
  Fbg: 253.8 mg/dL
  Hb: 14 g/dL
  Ht: 42.8%
  Lym: 75%
  MCH: 20.2 pg
  MCHC: 32.8%
  MCV: 61.5 fL
  Mono: 8.6%
  Neu: 15.2%
  PT: 12.1 s
  Plat: 134.8 x10_4/uL
  RBC: 696.6 x10_4/ul
  Ret: 5.6%
  WBC: 119.2 x10_2/uL
  KIDNEY_L: 1.4 g
  KIDNEY_R: 1.4 g
  KIDNEY_TOTAL: 2.7 g
  LIVER: 14 g
  A/G: 1.8
  ALP: 1109.8 IU/L
  ALT: 33.8 IU/L
  AST: 70 IU/L
  BUN: 16.6 mg/dL
  CRE: 0.4 mg/dL
  Ca: 10.8 mg/dL
  Cl: 106.2 meq/L
  DBIL: 0.01 mg/dL
  GLC: 183.8 mg/dL
  IP: 6.9 mg/dL
  K: 5.3 meq/L
  LDH: 146.8 IU/L
  Na: 138.4 meq/L
  PL: 135.6 mg/dL
  RALB: 3.6 g/dL
  TBIL: 0.028 mg/dL
  TC: 66.6 mg/dL
  TG: 111.2 mg/dL
  TP: 5.7 g/dL
  gamma-GTP: 1 IU/L
[8]
  TERMINAL_BW: 414.7 g
  APTT: 17.5 s
  Bas: 0%
  Eos: 1.2%
  Fbg: 251.8 mg/dL
  Hb: 15.1 g/dL
  Ht: 46%
  Lym: 76.2%
  MCH: 19.4 pg
  MCHC: 32.8%
  MCV: 59.4 fL
  Mono: 7.2%
  Neu: 15.8%
  PT: 12 s
  Plat: 117.6 x10_4/uL
  RBC: 774.6 x10_4/ul
  Ret: 4.2%
  WBC: 132 x10_2/uL
  KIDNEY_L: 1.5 g
  KIDNEY_R: 1.5 g
  KIDNEY_TOTAL: 3 g
  LIVER: 16.3 g
  A/G: 1.5
  ALP: 926.6 IU/L
  ALT: 27.8 IU/L
  AST: 62.6 IU/L
  BUN: 16.6 mg/dL
  CRE: 0.4 mg/dL
  Ca: 9.3 mg/dL
  Cl: 105 meq/L
  DBIL: 0.012 mg/dL
  GLC: 193 mg/dL
  IP: 6.4 mg/dL
  K: 4.9 meq/L
  LDH: 168 IU/L
  Na: 139.4 meq/L
  PL: 142 mg/dL
  RALB: 3.8 g/dL
  TBIL: 0.046 mg/dL
  TC: 71.8 mg/dL
  TG: 158.2 mg/dL
  TP: 6.3 g/dL
  gamma-GTP: 0.6 IU/L
